Assay results: ChEMBL document CHEMBL4219215, “Discovery of {4-[4,9-bis(ethyloxy)-1-oxo-1,3-dihydro-2H-benzo[f]isoindol-2-yl]-2-fluorophenyl}acetic acid (GSK726701A), a novel EP4 receptor partial agonist for the treatment of pain” (Bioorg Med Chem Lett, 2018)
pEC50, pIC50: −log10 of the molar value.

Experiments:
[1] = Intrinsic clearance in human liver microsomes; format: ADME, microsome
Homo sapiens [2] = species: Homo sapiens; assay: Selectivity index, ratio of antagonist activity at IP receptor (unknown origin) to pEC50 for partial agonist activity at human EP4 receptor expressed in HEK293-AEQ17 cells; format: cell-based
Homo sapiens [3] = species: Homo sapiens; assay: Selectivity index, ratio of agonist activity at EP2 receptor (unknown origin) to pEC50 for partial agonist activity at human EP4 receptor expressed in HEK293-AEQ17 cells; format: cell-based
Rattus norvegicus [4] = assay: Analgesic activity in rat model of chronic joint pain dosed twice daily for 5 days; format: functional; conditions: 120 h
Cytochrome P450 2C19 = Cytochrome P450 2C19 (Homo sapiens, UniProt P33261); assay: Inhibition of human recombinant CYP2C19; format: ADME; conditions: human, recombinant enzyme
Sequence of Cytochrome P450 2C19 (P33261 whole entry): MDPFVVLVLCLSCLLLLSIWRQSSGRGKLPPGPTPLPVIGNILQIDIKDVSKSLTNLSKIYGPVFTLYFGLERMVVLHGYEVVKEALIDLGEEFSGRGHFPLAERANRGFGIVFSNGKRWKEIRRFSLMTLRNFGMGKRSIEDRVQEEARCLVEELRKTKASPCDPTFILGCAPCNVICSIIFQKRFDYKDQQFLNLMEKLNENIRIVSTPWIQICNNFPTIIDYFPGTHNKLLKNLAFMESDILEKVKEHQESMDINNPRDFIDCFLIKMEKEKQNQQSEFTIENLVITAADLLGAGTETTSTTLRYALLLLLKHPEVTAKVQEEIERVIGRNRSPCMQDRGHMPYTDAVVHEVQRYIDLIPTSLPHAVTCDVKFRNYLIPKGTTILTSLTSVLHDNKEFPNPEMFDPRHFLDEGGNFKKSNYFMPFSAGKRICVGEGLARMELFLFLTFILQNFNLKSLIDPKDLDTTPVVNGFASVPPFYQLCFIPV

Homo sapiens [5] = species: Homo sapiens; assay: Selectivity index, ratio of agonist activity at IP receptor (unknown origin) to pEC50 for partial agonist activity at human EP4 receptor expressed in HEK293-AEQ17 cells; format: cell-based
[6] = Half life in rat at 1 mg/kg, po; format: ADME, organism-based; conditions: in vivo
[7] = biological target: Prostacyclin receptor (Homo sapiens) (UniProt P43119); assay: Agonist activity at IP receptor (unknown origin) assessed as induction of receptor activation at 1 uM; format: functional
Sequence of Prostacyclin receptor (Homo sapiens) (P43119 whole entry): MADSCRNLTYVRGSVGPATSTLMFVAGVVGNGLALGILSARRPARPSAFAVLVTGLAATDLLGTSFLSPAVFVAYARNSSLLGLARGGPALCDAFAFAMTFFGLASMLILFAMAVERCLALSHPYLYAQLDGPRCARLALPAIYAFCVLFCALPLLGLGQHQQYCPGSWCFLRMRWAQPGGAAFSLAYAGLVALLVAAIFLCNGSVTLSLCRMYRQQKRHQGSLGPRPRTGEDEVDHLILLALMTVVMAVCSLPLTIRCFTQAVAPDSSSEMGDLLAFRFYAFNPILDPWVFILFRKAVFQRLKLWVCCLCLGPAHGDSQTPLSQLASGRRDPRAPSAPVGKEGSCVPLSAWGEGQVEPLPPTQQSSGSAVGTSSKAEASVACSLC

Homo sapiens [8] = species: Homo sapiens; assay: Selectivity index, ratio of pIC50 for DP1 receptor (unknown origin) to pEC50 for partial agonist activity at human EP4 receptor expressed in HEK293-AEQ17 cells; format: cell-based
Cytochrome P450 3A4 = Cytochrome P450 3A4 (Homo sapiens, UniProt P08684); assay: Inhibition of human recombinant CYP3A4 using 7BQ substrate; format: ADME; conditions: human, recombinant enzyme
Sequence of Cytochrome P450 3A4 (P08684 whole entry): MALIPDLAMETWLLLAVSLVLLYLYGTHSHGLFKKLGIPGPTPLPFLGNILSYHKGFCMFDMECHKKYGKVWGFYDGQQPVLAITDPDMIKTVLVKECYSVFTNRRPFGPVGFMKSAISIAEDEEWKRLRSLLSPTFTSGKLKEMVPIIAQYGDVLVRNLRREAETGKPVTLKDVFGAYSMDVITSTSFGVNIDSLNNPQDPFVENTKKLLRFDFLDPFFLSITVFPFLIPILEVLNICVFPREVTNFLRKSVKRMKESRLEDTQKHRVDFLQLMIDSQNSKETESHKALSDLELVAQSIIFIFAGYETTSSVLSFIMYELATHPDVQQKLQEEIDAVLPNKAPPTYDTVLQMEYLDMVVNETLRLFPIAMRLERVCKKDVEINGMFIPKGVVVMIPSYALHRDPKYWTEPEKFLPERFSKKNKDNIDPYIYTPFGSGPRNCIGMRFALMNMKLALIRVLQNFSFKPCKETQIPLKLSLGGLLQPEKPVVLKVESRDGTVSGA

[9] = Intrinsic clearance in rat liver microsomes; format: ADME, microsome
[10] = Oral bioavailability in rat at 1 mg/kg; format: ADME, organism-based; conditions: in vivo
[11] = Protein binding in rat plasma; format: ADME, cell-free; conditions: read-out: PPB (converted)
Thromboxane A2 receptor = biological target: T1, Thromboxane A2 receptor (Homo sapiens, UniProt P21731); assay: Activity at TP receptor (unknown origin)
T1 sequence (P21731 whole entry): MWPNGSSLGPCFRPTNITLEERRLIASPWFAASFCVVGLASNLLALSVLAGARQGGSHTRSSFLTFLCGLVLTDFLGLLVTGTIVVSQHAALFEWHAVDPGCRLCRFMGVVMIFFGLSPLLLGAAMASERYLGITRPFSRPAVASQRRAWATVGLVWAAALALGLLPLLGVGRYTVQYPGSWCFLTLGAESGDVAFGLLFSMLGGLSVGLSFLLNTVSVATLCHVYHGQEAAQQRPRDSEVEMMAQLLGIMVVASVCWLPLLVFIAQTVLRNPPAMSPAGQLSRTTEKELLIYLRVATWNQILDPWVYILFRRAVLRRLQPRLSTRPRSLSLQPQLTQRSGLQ

Homo sapiens [12] = species: Homo sapiens; assay: Selectivity index, ratio of pIC50 for FP receptor (unknown origin) to pEC50 for partial agonist activity at human EP4 receptor expressed in HEK293-AEQ17 cells; format: cell-based
[13] = Protein binding in dog plasma; format: ADME, cell-free, Canis lupus familiaris; conditions: read-out: PPB (converted)
[14] = biological target: Prostaglandin E2 receptor EP2 subtype (Homo sapiens) (UniProt P43116); assay: Agonist activity at EP2 receptor (unknown origin) assessed as induction of receptor activation at 1 uM; format: functional
Sequence of Prostaglandin E2 receptor EP2 subtype (Homo sapiens) (P43116 whole entry): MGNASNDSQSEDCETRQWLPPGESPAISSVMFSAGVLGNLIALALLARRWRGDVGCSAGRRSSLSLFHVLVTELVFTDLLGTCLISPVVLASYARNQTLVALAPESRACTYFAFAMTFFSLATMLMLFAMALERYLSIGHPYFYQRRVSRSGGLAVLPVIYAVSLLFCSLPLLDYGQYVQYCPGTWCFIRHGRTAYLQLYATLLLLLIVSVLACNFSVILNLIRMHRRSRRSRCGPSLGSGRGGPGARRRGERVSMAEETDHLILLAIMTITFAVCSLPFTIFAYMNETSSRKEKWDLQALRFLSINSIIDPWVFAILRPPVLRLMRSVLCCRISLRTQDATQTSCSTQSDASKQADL

[15] = Oral bioavailability in cynomolgus monkey; format: ADME, organism-based, Macaca fascicularis; conditions: in vivo
[16] = biological target: Prostaglandin E2 receptor EP4 subtype (Homo sapiens, UniProt P35408); assay: Partial agonist activity at EP4 receptor in human whole blood assessed as inhibition of LPS-induced TNFalpha production; format: functional
Sequence of Prostaglandin E2 receptor EP4 subtype (P35408 whole entry): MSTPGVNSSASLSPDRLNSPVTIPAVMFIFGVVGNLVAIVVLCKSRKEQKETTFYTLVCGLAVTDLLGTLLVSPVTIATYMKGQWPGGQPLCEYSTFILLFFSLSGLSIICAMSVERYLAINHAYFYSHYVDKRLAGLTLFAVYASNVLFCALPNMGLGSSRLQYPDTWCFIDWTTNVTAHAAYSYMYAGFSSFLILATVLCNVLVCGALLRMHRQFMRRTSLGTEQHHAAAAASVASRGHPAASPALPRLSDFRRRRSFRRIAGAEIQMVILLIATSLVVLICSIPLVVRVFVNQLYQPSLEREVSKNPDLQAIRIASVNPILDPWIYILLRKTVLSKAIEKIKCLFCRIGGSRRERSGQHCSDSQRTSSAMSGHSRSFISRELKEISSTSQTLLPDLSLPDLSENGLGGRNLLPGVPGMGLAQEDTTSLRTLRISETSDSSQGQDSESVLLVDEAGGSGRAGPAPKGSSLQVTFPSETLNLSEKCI

Rattus norvegicus [17] = assay: Analgesic activity in rat model of chronic constriction injury-induced neuropathic pain assessed as reversal of mechanical allodynia at 3 mg/kg dosed twice daily for 8 days; format: functional, organism-based; conditions: TDE = time-dependent effect

Work on `CCOc1c2c(c(OCC)c3ccccc13)C(=O)N(c1ccc(CC(=O)O)c(F)c1)C2` yielded a CLH [1] of less than 1 mL/min/g, a Selectivity ratio (Homo sapiens [2]) greater than 100 and a Selectivity ratio (Homo sapiens [3]) greater than 100. It also gave an ED50 (Rattus norvegicus [4]) of 0.23 mg/kg, an INH (Cytochrome P450 2C19) greater than 100 µM and a Selectivity ratio (Homo sapiens [5]) greater than 100. The half-life [6] was 6 h, the Activity [7] was 11% and the Selectivity ratio (Homo sapiens [8]) was greater than 100. It also gave an INH (Cytochrome P450 3A4) greater than 100 µM, a CLH [9] of less than 1 mL/min/g and a bioavailability [10] of 112%. For the same compound, the fraction unbound [11] was 0.002, the pIC50 (Thromboxane A2 receptor) was less than 5.00 and the Selectivity ratio (Homo sapiens [12]) was greater than 100. The fraction unbound [13] was 0.009, the Activity [14] was 14% and the bioavailability [15] was 50%. The pEC50 [16] was 8.20 and the Activity (Rattus norvegicus [17]) was “Tde”.
